Laboratory results taken from US9944607B2, “Thiohydantoin derivatives and uses thereof” (Whitehead Institute for Biomedical Research, priority 2012, dated 2018).
Values after ≈ are worked out from the molar mass of the structure shown. Where two headings read alike, the source gives them in different places.

Key:
Candida albicans CaCi-17 = experiment: Primary assay: C. albicans CaCi-17 growth inhibition (Alamar Blue); type: cell-based; settings: n = 3, 48 hours, tested up to 26 μM; for IC50: read-out: Growth Inhibition Activity, IC50 (μM), C. albicans (n = 3) CaCi-17
[1] = tested on: NIH-3T3 mammalian fibroblasts; experiment: Counterscreen mammalian cell toxicity assay (Alamar Blue); type: cell-based, murine; settings: n = 1, 48 hours, tested up to 26 μM; for IC50: read-out: Growth Inhibition Activity, IC50 (μM), 3T3 Fibroblasts (n = 1)
Procedure: Quiescent murine fibroblasts were subjected to incubation with compounds of interest for 48 hours. Subsequent cell viability was determined via measuring Alamar Blue fluorescence.
Procedures • After overnight culture, pin compounds into wells at 100 nL/well using the CyBio CyBi-Well pinning instrument. • Return the plates to the tissue culture incubator and incubate the culture for an additional 48 hours at 37° C. under 5% CO2. • At the completion of this incubation, add Alamar Blue solution diluted 1:40 in PBS to each well (10 μL/well) to achieve a final dilution of 1:200. • Incubate the plates for an additional 2-3 hours at 37° C. under 5% CO2. • Read the Relative Fluorescence Intensity (RFU) of wells on a standard plate reader as a measure of relative cell growth. […] 4.4.

[2] = Solubility in PBS pH 7.4 with 1% DMSO; settings: for solubility at 24 h: phosphate buffered saline with 1% DMSO, pH 7.4, aqueous buffer, kinetic from dmso stock
Procedure: Solubility was determined in phosphate buffered saline (PBS) pH 7.4 with 1% DMSO. Each compound was prepared in duplicate at 100 μM in both 100% DMSO and PBS with 1% DMSO. Compounds were allowed to equilibrate at room temperature with a 250 rpm orbital shake for 24 hours. After equilibration, samples were analyzed by UPLC-MS (Waters, Milford, Mass.) with compounds detected by SIR detection on a single quadrupole mass spectrometer. The DMSO samples were used to create a two-point calibration curve to which the response in PBS was fit.

Candida albicans CaCi-2 = experiment: Primary assay: C. albicans CaCi-2 growth inhibition (Alamar Blue); type: cell-based; settings: n = 3, 48 hours, tested up to 26 μM; for IC50: read-out: Growth Inhibition Activity, IC50 (μM), C. albicans (n = 3) CaCi-2
[3] = Table 4, PBS pH 7.4 with 1% DMSO, 24 hours, room temperature
[4] = Table 3, PBS pH 7.4 with 1% DMSO, 24 hours, room temperature

In the case of `CCOC(=O)N1C(=O)C2(CCCCC2)N(c2ccc(-c3ccccc3)cc2)C1=S` [compound 56604882], the “Growth Inhibition Activity, IC50 (μM), C. albicans (n = 3) CaCi-17” value (from here on “Growth Inhibition Activity … (n = 3) CaCi-17”) (Candida albicans CaCi-17; Table 4) was “inactive”, the IC50 ([1]; Table 4) was 9.8 µM and the “PBS Solubility” value [2, 3] was <1.0 µM. The “Growth Inhibition Activity, IC50 (μM), C. albicans (n = 3) CaCi-2” value (“Growth Inhibition Activity … (n = 3) CaCi-2” below) (Candida albicans CaCi-2; Table 4) was “inactive”.

In the case of `Cc1ccc(N2C(=S)N(S(C)(=O)=O)C(=O)C23CCCCC3)cc1` [compound 56604886], the “Growth Inhibition Activity … (n = 3) CaCi-17” value (Candida albicans CaCi-17; Table 3) was “inactive”, the “Growth Inhibition Activity, IC50 (μM), 3T3 Fibroblasts (n = 1)” value (“Growth Inhibition Activity, IC50 … (n = 1)” below) ([1]; Table 3) was “Inactive” and the “PBS Solubility” value ([2]; pH 7.4) was 29 µM. The “Growth Inhibition Activity … (n = 3) CaCi-2” value (Candida albicans CaCi-2; Table 3) was “inactive”.

For `O=C1NC(=S)N(Cc2ccccc2)C12CCCCC2` [compound 14297244], the “Growth Inhibition Activity … (n = 3) CaCi-17” value (Candida albicans CaCi-17; Table 7) was “inactive”, the “Growth Inhibition Activity, IC50 … (n = 1)” value ([1]; Table 7) was “Inactive” and the solubility at 24 h [2] was > 100 µM. The “Growth Inhibition Activity … (n = 3) CaCi-2” value (Candida albicans CaCi-2; Table 7) was “inactive”.

For `Cc1ccc(N2C(=S)NC(=O)C2(C)C)cc1` [compound 56604879], the “Growth Inhibition Activity … (n = 3) CaCi-17” value (Candida albicans CaCi-17; Table 7) was “inactive”, the “Growth Inhibition Activity, IC50 … (n = 1)” value ([1]; Table 7) was “Inactive” and the solubility at 24 h [2] was 55 µM (≈ 12.9 µg/mL). For the same compound, the “Growth Inhibition Activity … (n = 3) CaCi-2” value (Candida albicans CaCi-2; Table 7) was “inactive”.

For `CCOC(=O)N1C(=O)N(c2ccc(C)cc2)C2(CCCCC2)C1=O` [compound 56604827], the “Growth Inhibition Activity … (n = 3) CaCi-17” value (Candida albicans CaCi-17; Table 6) was “inactive”, the “Growth Inhibition Activity, IC50 … (n = 1)” value ([1]; Table 6) was “Inactive” and the solubility at 24 h [2] was 55 µM (≈ 18.2 µg/mL). The “Growth Inhibition Activity … (n = 3) CaCi-2” value (Candida albicans CaCi-2; Table 6) was “inactive”.

For `CCOC(=O)N1C(=S)N(c2ccc(C)cc2)C(=O)C12CCCCC2` [compound 56604852], the “Growth Inhibition Activity … (n = 3) CaCi-17” value (Candida albicans CaCi-17; Table 6) was “inactive”, the “Growth Inhibition Activity, IC50 … (n = 1)” value ([1]; Table 6) was “Inactive” and the solubility at 24 h [2] was < 1 µM. The “Growth Inhibition Activity … (n = 3) CaCi-2” value (Candida albicans CaCi-2; Table 6) was “inactive”.

With `Cc1ccc(N2C(=O)C(=O)NC2=S)cc1` [compound 56604884] the “Growth Inhibition Activity … (n = 3) CaCi-17” value (Candida albicans CaCi-17; Table 7) was “inactive”, the “Growth Inhibition Activity, IC50 … (n = 1)” value ([1]; Table 7) was “Inactive” and the solubility at 24 h [2] was 21 µM (≈ 4.63 µg/mL). For the same compound, the “Growth Inhibition Activity … (n = 3) CaCi-2” value (Candida albicans CaCi-2; Table 7) was “inactive”.

For `CCOC(=O)N1C(=O)C2(CCC2)N(c2ccc(C)cc2)C1=S` [compound 56604894], the “Growth Inhibition Activity … (n = 3) CaCi-17” value (Candida albicans CaCi-17; Table 5) was “inactive”, the “Growth Inhibition Activity, IC50 … (n = 1)” value ([1]; Table 5) was “Inactive” and the “PBS Solubility” value ([2]; pH 7.4) was 9.9 µM. The “Growth Inhibition Activity … (n = 3) CaCi-2” value (Candida albicans CaCi-2; Table 5) was “Inactive”.

For `O=C1NC(=S)NC12CCCCC2` [compound 56604841], the “Growth Inhibition Activity … (n = 3) CaCi-17” value (Candida albicans CaCi-17; Table 7) was “inactive”, the “Growth Inhibition Activity, IC50 … (n = 1)” value ([1]; Table 7) was “Inactive” and the solubility at 24 h [2] was > 100 µM. The “Growth Inhibition Activity … (n = 3) CaCi-2” value (Candida albicans CaCi-2; Table 7) was “inactive”.

For `CCOC(=O)N1C(=O)C2(CCCCC2)N(c2ccccc2C)C1=S` [compound 24052146], the IC50 (Candida albicans CaCi-17; Table 4) was 23.9 µM, the “Growth Inhibition Activity, IC50 … (n = 1)” value ([1]; Table 4) was “Inactive” and the “PBS Solubility” value [2, 3] was 18 µM. For the same compound, the IC50 (Candida albicans CaCi-2; Table 4) was 1.2 µM.

With `CCCCN1C(=O)C2(CCCCC2)N(c2ccc(C)cc2)C1=S` [compound 56604814] the “Growth Inhibition Activity … (n = 3) CaCi-17” value (Candida albicans CaCi-17; Table 3) was “inactive”, the IC50 ([1]; Table 3) was 24.2 µM and the “PBS Solubility” value ([2]; pH 7.4) was <1.0 µM. The “Growth Inhibition Activity … (n = 3) CaCi-2” value (Candida albicans CaCi-2; Table 3) was “inactive”.

In the case of `Cc1ccc(N2C(=S)NC(=O)C23CCCCC3)cc1` [compound 56604892], the “Growth Inhibition Activity … (n = 3) CaCi-17” value (Candida albicans CaCi-17; Table 3) was “inactive”, the “Growth Inhibition Activity, IC50 … (n = 1)” value ([1]; Table 3) was “Inactive” and the “PBS Solubility” value ([2]; pH 7.4) was 7.8 µM. The “Growth Inhibition Activity … (n = 3) CaCi-2” value (Candida albicans CaCi-2; Table 3) was “inactive”.

With `CCOC(=O)N1C(=O)C2(CCCCC2)N(c2ccc(OC)cc2)C1=S` [compound 56604819] the “Growth Inhibition Activity … (n = 3) CaCi-17” value (Candida albicans CaCi-17; Table 4) was “inactive”, the “Growth Inhibition Activity, IC50 … (n = 1)” value ([1]; Table 4) was “Inactive” and the “PBS Solubility” value ([2]; pH 7.4) was <1.0 µM. For the same compound, the IC50 (Candida albicans CaCi-2; Table 4) was 1.8 µM.

For `CCOC(=O)N1C(=O)C2(CCCCC2)N(Cc2ccccc2)C1=S` [compound 56604878], the IC50 (Candida albicans CaCi-17; Table 4) was 22.8 µM, the “Growth Inhibition Activity, IC50 … (n = 1)” value ([1]; Table 4) was “Inactive” and the “PBS Solubility” value [2, 3] was 7.2 µM. It also gave an IC50 (Candida albicans CaCi-2; Table 4) of 3.8 µM.

In the case of `Cc1ccc(N2C(=O)C3(CCCCC3)NC2=S)cc1` [compound 56604856], the “Growth Inhibition Activity … (n = 3) CaCi-17” value (Candida albicans CaCi-17; Table 7) was “inactive”, the “Growth Inhibition Activity, IC50 … (n = 1)” value ([1]; Table 7) was “Inactive” and the solubility at 24 h [2] was 5.9 µM (≈ 1.62 µg/mL). The “Growth Inhibition Activity … (n = 3) CaCi-2” value (Candida albicans CaCi-2; Table 7) was “inactive”.

For `O=C1NC(=S)N(c2ccc(F)cc2)C12CCCCC2` [compound 56604862], the “Growth Inhibition Activity … (n = 3) CaCi-17” value (Candida albicans CaCi-17; Table 7) was “inactive”, the “Growth Inhibition Activity, IC50 … (n = 1)” value ([1]; Table 7) was “Inactive” and the solubility at 24 h [2] was 43 µM (≈ 12 µg/mL). For the same compound, the “Growth Inhibition Activity … (n = 3) CaCi-2” value (Candida albicans CaCi-2; Table 7) was “inactive”.

With `CCOC(=O)N1C(=O)C2(CCCCC2)N(c2ccc(C(C)C)cc2)C1=S` [compound 56604817] the “Growth Inhibition Activity … (n = 3) CaCi-17” value (Candida albicans CaCi-17; Table 4) was “inactive”, the IC50 ([1]; Table 4) was 13.8 µM and the “PBS Solubility” value [2, 3] was <1.0 µM. The “Growth Inhibition Activity … (n = 3) CaCi-2” value (Candida albicans CaCi-2; Table 4) was “inactive”.

For `Cc1ccc(N2C(=S)NC(=O)C23CCOCC3)cc1` [compound 56604885], the “Growth Inhibition Activity … (n = 3) CaCi-17” value (Candida albicans CaCi-17; Table 7) was “inactive”, the “Growth Inhibition Activity, IC50 … (n = 1)” value ([1]; Table 7) was “Inactive” and the solubility at 24 h [2] was > 100 µM. For the same compound, the “Growth Inhibition Activity … (n = 3) CaCi-2” value (Candida albicans CaCi-2; Table 7) was “inactive”.

For `Cc1ccc(N2C(=S)N(C(=O)Oc3ccccc3)C(=O)C23CCCCC3)cc1` [compound 56604875], the “Growth Inhibition Activity … (n = 3) CaCi-17” value (Candida albicans CaCi-17; Table 3) was “inactive”, the “Growth Inhibition Activity, IC50 … (n = 1)” value ([1]; Table 3) was “Inactive” and the “PBS Solubility” value [2, 4] was <1.0 µM. For the same compound, the “Growth Inhibition Activity … (n = 3) CaCi-2” value (Candida albicans CaCi-2; Table 3) was “inactive”.

For `CCOC(=O)N1C(=O)C2(CCCCC2)NC1=S` [compound 56604830], the “Growth Inhibition Activity … (n = 3) CaCi-17” value (Candida albicans CaCi-17; Table 4) was “inactive”, the “Growth Inhibition Activity, IC50 … (n = 1)” value ([1]; Table 4) was “Inactive” and the “PBS Solubility” value ([2]; pH 7.4) was 61 µM. For the same compound, the “Growth Inhibition Activity … (n = 3) CaCi-2” value (Candida albicans CaCi-2; Table 4) was “inactive”.

For `CC(C)N1C(=S)NC(=O)C12CCCCC2` [compound 56604820], the “Growth Inhibition Activity … (n = 3) CaCi-17” value (Candida albicans CaCi-17; Table 7) was “inactive”, the “Growth Inhibition Activity, IC50 … (n = 1)” value ([1]; Table 7) was “Inactive” and the solubility at 24 h [2] was 32 µM (≈ 7.24 µg/mL). The “Growth Inhibition Activity … (n = 3) CaCi-2” value (Candida albicans CaCi-2; Table 7) was “inactive”.

With `Cc1ccc(N2C(=S)N(C)C(=O)C23CCCCC3)cc1` [compound 56604835] the “Growth Inhibition Activity … (n = 3) CaCi-17” value (Candida albicans CaCi-17; Table 3) was “inactive”, the “Growth Inhibition Activity, IC50 … (n = 1)” value ([1]; Table 3) was “Inactive” and the “PBS Solubility” value ([2]; pH 7.4) was 6.6 µM. The “Growth Inhibition Activity … (n = 3) CaCi-2” value (Candida albicans CaCi-2; Table 3) was “inactive”.

For `Cc1ccc(N2C(=S)NC(=O)C23CCC3)cc1` [compound 56604811], the “Growth Inhibition Activity … (n = 3) CaCi-17” value (Candida albicans CaCi-17; Table 7) was “inactive”, the “Growth Inhibition Activity, IC50 … (n = 1)” value ([1]; Table 7) was “Inactive” and the solubility at 24 h [2] was 62 µM (≈ 15.3 µg/mL). For the same compound, the “Growth Inhibition Activity … (n = 3) CaCi-2” value (Candida albicans CaCi-2; Table 7) was “inactive”.

With `CCCOC(=O)N1C(=O)C2(CCCCC2)N(c2ccc(C)cc2)C1=S` [compound 56604849] the “Growth Inhibition Activity … (n = 3) CaCi-17” value (Candida albicans CaCi-17; Table 3) was “inactive”, the “Growth Inhibition Activity, IC50 … (n = 1)” value ([1]; Table 3) was “Inactive” and the “PBS Solubility” value [2, 4] was <1.0 µM. It also gave an IC50 (Candida albicans CaCi-2; Table 3) of 1.2 µM.
